ChEMBL document CHEMBL2062404, “Purification and antiradical properties of the structural unit of betalains” (J Nat Prod, 2012)
Calls of active or inactive are those of the source. The calls are words filed in the database; no cut-off is given here.

Columns and labels:
Type in all cases: functional
[1] = Antioxidant activity against ABTS radical assessed as trolox equivalent at 50 uM after 24 hr at pH >5.5
[2] = Antioxidant activity against ABTS radical assessed as trolox equivalent at 50 uM after 24 hr at pH 5.5
[3] = Antioxidant activity against ABTS radical assessed as trolox equivalent after 24 hr at pH 7
[4] = Antioxidant activity assessed as ferric ion reduction by 2,4,6-tris(2- pyridyl)-s-triazine-based spectrophotometry

| SMILES | Activity [1] | Activity [2] | Activity [3] | Activity [4] |
| --- | --- | --- | --- | --- |
| O=C/C=C1/C=C(C(=O)O)N[C@H](C(=O)O)C1 | Active | inactive | 2.7 equiv | Active |
| Oc1ccc(/C=C/c2cc(O)cc(O)c2)cc1 |  |  | 2.7 equiv |  |
